Reference: publication PMC4835124 (Drug Design, Development and Therapy, 2016)
Like-named read-outs stand apart in the source and are kept apart here.

What was measured:
[1] = Comparative pharmacokinetic study; settings: for CL/F: fasting, n=35, mean ± SD; for Tmax: po
Food effect study = assay type: in vivo, human; settings: for CL/F: Part 2, FDC_EVO5/MET1000 single oral dose, n=27, mean ± SD
[2] = single administration in healthy volunteers; cited from earlier work
[3] = multiple dosing, 5–20 mg dose range, healthy volunteers; cited from earlier work
[4] = Part 1, EVO+MET (individual tablets) single oral dose
[5] = Part 1, FDC_EVO5/MET1000 single oral dose, plasma

SMILES	CL/F [1, 4]	CL/F [1, 5]	Tmax ([1]; male, human, in vivo)	half-life ([1]; male, human, in vivo, terminal half-life, present study)	intrasubject variability in CL/F ([1]; present study)	CL/F (Food effect study; Fasted)	CL/F (Food effect study; Fed)	effect of food on pharmacokinetics (Food effect study; single oral dose of FDC_EVO5/MET1000, fed vs fasted)	effect of food on pharmacokinetics [2]	half-life [2]	dose linearity of pharmacokinetics [3]	increase of AUClast under the fed condition compared to the fasted condition (Food effect study; FDC_EVO5/MET1000 single oral dose)
CC(C)(C)OC[C@@H]1C(=O)NCCN1C(=O)C[C@H](N)Cc1cc(F)c(F)cc1F [Evogliptin, evogliptin]	28.56 ± 8.64 L/h	28.81 ± 9.19 L/h	5 h	> 24 h	around 10.0%	25.05 ± 6.68 L/h	23.76 ± 5.07 L/h	did not significantly affect	not affected by food	≥ 30 h	linear pharmacokinetics	–
CN(C)C(=N)N=C(N)N [Metformin, metformin]	126.15 ± 35.21 L/h	126.82 ± 38.28 L/h	4 h	–	–	112.95 ± 28.61 L/h	78.76 ± 20.56 L/h	–	–	–	–	36%–60%
